Assay results taken from ChEMBL document CHEMBL4419162, “FMO3 inhibitors for treating pain” (2013).
Calls of active or inactive are those of the source.

How the values were obtained:
Rattus norvegicus [1] = test: (§1) Antinociceptive activity in Sprague-Dawley rat model of CFA-induced chronic inflammatory pain assessed as reduction in mechanical allodynia by measuring paw withdrawal threshold at 10 mg/kg, po administered as single dose and measured 30 mins to 24 hrs post dose by Von Frey's hairs assay; format: functional, organism-based
Rattus norvegicus [2] = test: as §1, with “of” for “of CFA-induced”, “constriction injury-induced mono-neuropathic” for “inflammatory”, “200” for “10”; format: functional, organism-based
Rattus norvegicus [3] = test: (§2) Antinociceptive activity in Sprague-Dawley rat model of CFA-induced chronic inflammatory pain assessed as reduction in mechanical allodynia by measuring paw withdrawal threshold at 60 mg/kg, po administered as single dose and measured 30 mins to 24 hrs post dose by Von Frey's hairs assay; format: functional, organism-based
Rattus norvegicus [4] = test: as §2, with “of” for “of CFA-induced”, “constriction injury-induced mono-neuropathic” for “inflammatory”; format: functional, organism-based
Rattus norvegicus [5] = test: Antinociceptive activity in Sprague-Dawley rat model of CFA-induced chronic inflammatory pain assessed as reduction in mechanical allodynia by measuring paw withdrawal threshold at 200 mg/kg, po administered as single dose and measured 30 mins to 24 hrs post dose by Von Frey's hairs assay; format: functional, organism-based
Rattus norvegicus [6] = test: (§3) Antinociceptive activity in Sprague-Dawley rat model of CFA-induced chronic inflammatory pain assessed as reduction in mechanical allodynia by measuring paw withdrawal threshold at 20 mg/kg, po administered as single dose and measured 30 mins to 24 hrs post dose by Von Frey's hairs assay; format: functional, organism-based
Rattus norvegicus [7] = test: as §3, with “of” for “of CFA-induced”, “constriction injury-induced mono-neuropathic” for “inflammatory”; format: functional, organism-based
Rattus norvegicus [8] = test: (§4) Antinociceptive activity in Sprague-Dawley rat model of CFA-induced chronic inflammatory pain assessed as reduction in mechanical allodynia by measuring paw withdrawal threshold at 1.8 mg/kg, po administered as single dose and measured 30 mins to 24 hrs post dose by Von Frey's hairs assay; format: functional, organism-based
Rattus norvegicus [9] = test: as §4, with “of” for “of CFA-induced”, “constriction injury-induced mono-neuropathic” for “inflammatory”; format: functional, organism-based
Rattus norvegicus [10] = test: as §1, with “of” for “of CFA-induced”, “constriction injury-induced mono-neuropathic” for “inflammatory”, “2” for “10”; format: functional, organism-based
Rattus norvegicus [11] = test: Antinociceptive activity in Sprague-Dawley rat model of CFA-induced chronic inflammatory pain assessed as reduction in mechanical allodynia by measuring paw withdrawal threshold at 2 mg/kg, po administered as single dose and measured 30 mins to 24 hrs post dose by Von Frey's hairs assay; format: functional, organism-based
[12] = biological target: 3',5'-cyclic-AMP phosphodiesterase 4D (Homo sapiens, UniProt Q08499); test: Inhibition of human PDE4D catalytic domain using [3H]-cAMP or [3H]-cGMP incubated for 30 mins by scintillation counting method
Rattus norvegicus [13] = test: as §1, with “of” for “of CFA-induced”, “constriction injury-induced mono-neuropathic” for “inflammatory”, “50” for “10”; format: functional, organism-based
Rattus norvegicus [14] = test: as §1, with “of” for “of CFA-induced”, “constriction injury-induced mono-neuropathic” for “inflammatory”, “500” for “10”; format: functional, organism-based
Rattus norvegicus [15] = test: Antinociceptive activity in Sprague-Dawley rat model of CFA-induced chronic inflammatory pain assessed as reduction in mechanical allodynia by measuring paw withdrawal threshold at 500 mg/kg, po administered as single dose and measured 30 mins to 24 hrs post dose by Von Frey's hairs assay; format: functional, organism-based
Rattus norvegicus [16] = test: Antinociceptive activity in Sprague-Dawley rat model of CFA-induced chronic inflammatory pain assessed as reduction in mechanical allodynia by measuring paw withdrawal threshold at 50 mg/kg, po administered as single dose and measured 30 mins to 24 hrs post dose by Von Frey's hairs assay; format: functional, organism-based
Rattus norvegicus [17] = test: as §1, with “of” for “of CFA-induced”, “constriction injury-induced mono-neuropathic” for “inflammatory”, “3” for “10”; format: functional, organism-based
Rattus norvegicus [18] = test: Antinociceptive activity in Sprague-Dawley rat model of CFA-induced chronic inflammatory pain assessed as reduction in mechanical allodynia by measuring paw withdrawal threshold at 3 mg/kg, po administered as single dose and measured 30 mins to 24 hrs post dose by Von Frey's hairs assay; format: functional, organism-based

3',5'-cyclic-AMP phosphodiesterase 4D, sequence (Q08499 whole entry, the tested form may be a part): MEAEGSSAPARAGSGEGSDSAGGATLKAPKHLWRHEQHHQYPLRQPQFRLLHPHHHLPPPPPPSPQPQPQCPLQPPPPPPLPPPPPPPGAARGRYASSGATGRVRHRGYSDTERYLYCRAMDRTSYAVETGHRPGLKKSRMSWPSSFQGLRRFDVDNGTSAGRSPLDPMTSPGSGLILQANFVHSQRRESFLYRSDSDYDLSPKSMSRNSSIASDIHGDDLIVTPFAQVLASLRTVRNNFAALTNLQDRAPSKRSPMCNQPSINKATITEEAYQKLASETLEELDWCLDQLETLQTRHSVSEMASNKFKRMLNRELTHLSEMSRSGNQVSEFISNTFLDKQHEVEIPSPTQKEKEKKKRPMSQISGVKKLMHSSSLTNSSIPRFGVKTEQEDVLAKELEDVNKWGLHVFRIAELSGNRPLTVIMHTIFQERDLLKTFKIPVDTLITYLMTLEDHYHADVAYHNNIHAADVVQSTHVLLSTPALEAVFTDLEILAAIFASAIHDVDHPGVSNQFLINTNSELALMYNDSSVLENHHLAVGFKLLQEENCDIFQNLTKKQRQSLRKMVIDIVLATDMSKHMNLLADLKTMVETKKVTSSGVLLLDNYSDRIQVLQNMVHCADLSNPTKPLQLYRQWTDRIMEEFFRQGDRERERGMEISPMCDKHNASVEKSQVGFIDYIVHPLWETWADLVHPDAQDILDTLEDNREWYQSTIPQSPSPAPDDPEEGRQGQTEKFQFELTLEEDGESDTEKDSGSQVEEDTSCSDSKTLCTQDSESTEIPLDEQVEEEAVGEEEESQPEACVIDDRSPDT

With `COc1ccc2c(c1)c(CC(=O)O)c(C)n2C(=O)c1ccc(Cl)cc1` the Activity (Rattus norvegicus [1]) was “Active”.
`COc1cc(Nc2c(C#N)cnc3cc(OCCCN4CCN(C)CC4)c(OC)cc23)c(Cl)cc1Cl` was tested, and the Activity (Rattus norvegicus [2]) was “Active”, the Activity (Rattus norvegicus [3]) was “Active” and the Activity (Rattus norvegicus [4]) was “Active”. The Activity (Rattus norvegicus [5]) was “Active”.
With `CC(C)C[C@H](CN)CC(=O)O` the Activity (Rattus norvegicus [4]) was “Active”.
For `COc1cc(-c2ccc(=O)[nH]n2)ccc1OC(F)F`, the Activity (Rattus norvegicus [6]) was “Active” and the Activity (Rattus norvegicus [7]) was “Active”.
In the case of `O=C(Nc1c(Cl)cncc1Cl)c1ccc(OC(F)F)c(OCC2CC2)c1`, the Activity (Rattus norvegicus [8]) is reported as “Active” and the Activity (Rattus norvegicus [9]) is reported as “Active”.
In the case of `Nc1ncnc2c1ncn2CCOCP(=O)(O)O`, the Activity (Rattus norvegicus [10]) is reported as “Active”, the Activity (Rattus norvegicus [11]) is reported as “Active” and the Activity (Rattus norvegicus [6]) is reported as “Active”. For the same compound, the Activity (Rattus norvegicus [7]) was “Active”.
Compound `COc1cc2c(cc1OC)[C@@H]1CN(C)CC[C@@H]1N=C2c1ccc(NS(=O)(=O)c2ccc(C)cc2)cc1` has an IC50 [12] of 0.03 µM.
With `C[C@H](Cn1cnc2c(N)ncnc21)OCP(=O)(O)O` the Activity (Rattus norvegicus [13]) was “Active”, the Activity (Rattus norvegicus [14]) was “Active” and the Activity (Rattus norvegicus [15]) was “Active”. For the same compound, the Activity (Rattus norvegicus [16]) was “Active”.
For `COc1ccc([C@]2(C#N)CC[C@@H](C(=O)O)CC2)cc1OC1CCCC1`, the Activity (Rattus norvegicus [17]) was “Active” and the Activity (Rattus norvegicus [18]) was “Active”.
